Laboratory results as given in patent EP4385997A1 (priority 2022, dated 2024).
Where no end group is shown, it is not given here.

Tested on: Xylella fastidiosa DSM10026/ATCC35879

## KWKLFKKIEKVGQNIRDGIIKAGPAVAVVGQATQIAK-NH2 (C-terminus assumed) [Cecropin A BR001]
  MIC (µM): 6.25 µM
  MIC (µg mL^-1): 25 µg/mL
